Our source for the IC50 values is US8598187B2, “Arylamide pyrimidone compounds” (Sanofi, priority 2007, dated 2013).

The test concerns the target GSK3β (Homo sapiens, UniProt P49841). Kind of test: Inhibitory activity against GSK3β (33P-ATP phosphorylation of prephosphorylated GS1 peptide, two protocols). Format: biochemical. Particulars: protocol 1 or 2 not specified. As to the method: Inhibitory Activity of the Medicament of the Present Invention Against GSK3β
Two different protocols can be used.
In a first protocol: 7.5 μM of prephosphorylated GS1 peptide and 10 μM ATP (containing 300,000 cpm of ^33P-ATP) were incubated in 25 mM Tris-HCl, pH 7.5, 0.6 mM DTT, 6 mM MgCl2, 0.6 mM EGTA, 0.05 mg/ml BSA buffer for 1 hour at room temperature in the presence of GSK3beta (total reaction volume: 100 microliters).
In a second protocol: 4.1 μM of prephosphorylated GS1 peptide and 42 μM ATP (containing 260,000 cpm ^33P-ATP) were incubated in 80 mM Mes-NaOH, pH 6.5, 1 mM Mg acetate, 0.5 mM EGTA, 5 mM 2-mercaptoethanol, 0.02% Tween 20, 10% glycerol buffer for 2 hours at room temperature in the presence of GSK3beta. Inhibitors were solubilized in DMSO (final solvent concentration in the reaction medium, 1%).
The reaction was stopped with 100 microliters of a solution made of 25 g polyphosphoric acid (85% P2O5), 126 ml 85% H3PO4, H2O to 500 ml and then diluted to 1:100 before use. An aliquot of the reaction mixture was then transferred to Whatman P81 cation exchange filters and rinsed with the solution described above. Incorporated ^33P radioactivity was determined by liquid scintillation spectrometry.
The phosphorylated GS-1 peptide had the following sequence: NH2-[…](P)EDEE-COOH. SEQ ID NO: 1 (Woodgett, J. R. (1989) Analytical Biochemistry 180, 237-241. […]

Sequence of GSK3β (P49841 whole entry): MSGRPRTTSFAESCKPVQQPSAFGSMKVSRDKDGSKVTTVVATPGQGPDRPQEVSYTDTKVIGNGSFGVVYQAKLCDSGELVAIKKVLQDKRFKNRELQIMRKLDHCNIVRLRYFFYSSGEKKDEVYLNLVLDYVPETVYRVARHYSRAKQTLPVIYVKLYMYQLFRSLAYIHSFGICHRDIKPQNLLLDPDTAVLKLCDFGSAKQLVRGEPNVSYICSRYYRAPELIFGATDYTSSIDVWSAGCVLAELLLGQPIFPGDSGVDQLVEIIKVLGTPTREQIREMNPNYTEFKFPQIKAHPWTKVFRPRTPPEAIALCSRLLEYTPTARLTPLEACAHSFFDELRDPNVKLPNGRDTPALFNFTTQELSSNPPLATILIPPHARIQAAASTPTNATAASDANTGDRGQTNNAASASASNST

A word on the IC50: it is the concentration that gives 50% inhibition. Consider `COc1cc(Cl)ccc1C(=O)NCCc1nc(-c2ccncn2)cc(=O)n1C` [No. 1], for which half-maximal inhibition (IC50) was put at 85 nM.
